A word on the Log P: it is a log measure of how a compound divides between an organic and an aqueous phase. Read a high Log P as higher lipophilicity.

Where two headings read alike, the source gives them in different places.

Series [1] concerns TAMH cells overexpressing Bcl-xL (TAMH-Bcl-xL, Tabx2s). Put plainly: Cytotoxicity / apoptosis induction in TAMH cells overexpressing Bcl-xL. The class given is cell-based. As to conditions: for Neo:Bcl: ratio Neo to Bcl-xL cells. The procedure:
(§1) To examine the sensitivity of cells over-expressing Bcl-xL to various mitochondrial inhibitors and apoptosis inducers, cell lines over-expressing Bcl-xL were prepared and tested according to Hockenberry et al. U.S. Pat. No. 7,241,804, hereby incorporated by reference in its entirety. Competitive binding of compounds with fluorescent antimycin A3, and competitive binding of compounds with BH3 peptide and Bcl-2. Competitive binding of compounds with BH-3 peptide were also measured using Bcl-xL as previously described. Id.
(§2) Cell lines were grown in RPMI 1640 medium (Gibco, Grand Island, N.Y.) supplemented with 5% fetal bovine serum (Hyclone, Logan, Utah). Also shown is the ratio of TAMH cells expressing Bcl-xL to those expressing A142L (WT:142L). The assay measures the potency of various compounds with respect to inducing apoptosis in these cells.
(§3) The compounds described in Example 2 were tested for their ability to inhibit Bcl-2 gain-of-function in TAMH cells, TAMH cells overexpressing […] (TAMH-Bcl-xL), TAMH cells transfected with Neo vector (Neo), TAMH cells over expressing a variant of Bcl-xL (A142L) using the methods of Example 1. 3-6.
(§4) The effects of the compounds described in Example 8 on TAMH cells, TAMH cells overexpressing Bcl-xL (TAMH-Bcl-xL), TAMH cells transfected with Neo vector (Neo), TAMH cells over expressing a variant of Bcl-xL (A142L) is shown in Table 8
(§5) The effects of the compounds described in Example 10 on TAMH cells, TAMH cells overexpressing Bcl-xL (TAMH-Bcl-xL), TAMH cells transfected with Neo vector (Neo), TAMH cells over expressing a variant of Bcl-xL (A142L) is shown in the following Table 10

In series [2] the test system is TAMH cells transfected with Neo vector (Neo). Put plainly: Cytotoxicity / apoptosis induction in TAMH cells transfected with Neo vector. The settings on record: TAMH Neo cells. The class given is cell-based. The method, then: as §1, §2, §3, §4, §5
Series [3] deals with CFPAC-1, HPAF-II MIA PaCa, PaTu-1, PaTu-8988t, ASPC-1, FA-6, and PANC-1 cell lines. Description: EC50 in a panel of pancreatic cell lines. The class given is cell-based. As to conditions: Homo sapiens; every pancreatic cell line of the panel, but for HPAF-II; FIG. 1. The procedure:
The EC50 for the Compound 0216 (see structure above) was determined in a panel of pancreatic cell lines.
The panel included CFPAC-1, HPAF-II MIA PaCa, PaTu-1, PaTu-8988t, ASPC-1, FA-6, and PANC-1 cell lines. Pancreatic cancer samples were obtained from patients, with appropriate patient consent and approval of the Fred Hutchinson Cancer Research Center Institutional Review Board. Primary cells were maintained in Iscove's medium supplemented with 10% bovine calf serum, 100 ng·ml^−1 stem cell factor, and 50 ng·ml^−1 interleukin-3.
The EC50 values were measured with compound 216. […] This means that this molecule has a broad ability to induce apoptosis in a wide variety of pancreatic cancers.
The panel included CFPAC-1, HPAF-II MIA PaCa, PaTu-1, PaTu-8988t, ASPC-1, FA-6, and PANC-1 cell lines. Pancreatic cancer samples were obtained from patients, with appropriate patient consent and institutional approval. Primary cells were maintained in Iscove's medium supplemented with 10% bovine calf serum, 100 ng·ml^−1 stem cell factor, and 50 ng·ml^−1 interleukin-3.
The EC50 values were measured with compound FH279.

In series [4] the test system is OVCAR-3, an ovarian tumor. Description: Apoptosis induction against solid tumors in vitro, OVCAR-3. The class given is cell-based. The procedure: (§6) The ability of compounds from Example 2 to induce apoptosis against solid tumors in vitro was tested. Four solid tumors were tested: OVCAR-3, an ovarian tumor; COLO205, a colonic tumor; HOP-62 and H23, both NSCLC tumors. The experimental compounds were compared to 2MeAA and to ABT-737, a clinical stage compound owned by Abbott Pharma.
(§7) The ability of compounds of Example 8 to induce apoptosis against solid tumors in vitro was tested. Four solid tumors were tested: OVCAR-3, an ovarian tumor; COLO205, a colonic tumor; HOP-62 and H23, both NSCLC tumors. The experimental compounds, […]

Another series deals with HOP-62, NSCLC tumor. Description: Apoptosis induction against solid tumors in vitro, HOP-62. Format: cell-based. The procedure:
as §6, §7

Another series has as its system COLO205, a colonic tumor. Put plainly: Apoptosis induction against solid tumors in vitro, COLO205. Format: cell-based. The procedure: as §6, §7
The test system of another series is H23, NSCLC tumor. Put plainly: Apoptosis induction against solid tumors in vitro, H23. The class given is cell-based. The method, then:
as §6, §7

Series [5] concerns TAMH cells over expressing a variant of Bcl-xL (A142L). Put plainly: Cytotoxicity / apoptosis induction in TAMH cells over expressing Bcl-xL variant A142L. Format: cell-based. The settings on record: Table 4; for EC50: TAMH A142L cells; for WT:142L: ratio of TAMH cells expressing Bcl-xL to those expressing A142L. The method, then: as §1, §2, §3
A further series deals with Colo205 cells. Put plainly: Mouse colon carcinoma xenograft model. The class given is in vivo, NOD/Les2 SCID/J mice. As to conditions: daily intraperitoneal administration, single agent; FIG. 4. The procedure:
The ability of the experimental compounds to inhibit tumor growth in a body was tested in a mouse colon carcinoma xenograft model.
Six to nine-week old NOD/Les2 SCID/J mice were inoculated with 3×10^7 Colo205 cells by interscapular subcutaneous injection. Mice were maintained under specific pathogen-free conditions. Palpable tumor nodules were measured in two dimensions with calipers and tumor volumes calculated in mm3 as (length×width^2)/2. Blood samples were collected by retro-orbital bleed for human light chain measurements by ELISA using lambda-specific antibody (BD Biosciences). Animals were sacrificed by halothane inhalation, and histologic examination of the tumors and internal organs was performed. All experiments were approved by the FHCRC Institutional Animal Care and Use Committee.
Animals were treated by daily intraperitoneal administration of Compound 0511 (see structure above in Example 2).
Six to nine-week old NOD/Les2 SCID/J mice were inoculated with 3×10^7 Colo205 cells by interscapular subcutaneous injection. Mice were maintained under specific pathogen-free conditions. Palpable tumor nodules were measured in two dimensions with calipers and tumor volumes calculated in mm3 as (length×width^2)/2. Blood samples were collected by retro-orbital bleed for human light chain measurements by ELISA using lambda-specific antibody (BD Biosciences). […]

Another series can be described thus: Log P. As to conditions: Table 3.
Where [6] appears, read: Homo sapiens, COLO 205, Table 21.
Where [7] appears, read: Homo sapiens, NCI-H23, Table 21.
The mark [8] stands for this setting: Table 4, TAMH-Bcl-xL cells, read-out: Bcl-xL.

Take `O=[N+]([O-])c1ccc(SCc2ccccc2)c2nonc12` [Compound 0216]: the EC50 is 1.2 µM in [1] (Mus musculus, Table 6, TAMH cells overexpressing Bcl-xL (Tabx2s), read-out: 2S EC50); 3.7 µM in series [2] (Mus musculus, Table 6, read-out: Neo EC50); under 10 µM in series [3]. Also, the “sensitivity to the apoptosis-inducing effects” value in series [1] (TAMH cells overexpressing Bcl-xL compared to TAMH neo cells, FIG. 2) was “more sensitive”.

In the case of `O=[N+]([O-])c1cccc(/C=N/Nc2ccc3ccccc3n2)c1O` [FH297], the EC50 amounted to 1.5 µM in [4] (Homo sapiens, Table 21); 2.7 µM in the series on HOP-62, NSCLC tumor (Homo sapiens, Table 21); 1 µM in the series with COLO205, a colonic tumor (setting [6]); 2.8 µM with H23, NSCLC tumor (setting [7]).

For “2-methoxy antimycin A [Compound 2-MeAA, reference compound]”, the EC50 in series [4] (Table 7) stood at 3.5 µM; in series [4] (Table 21) it was 3.5 µM; in [5] it was 10.3 µM; in the series on HOP-62, NSCLC tumor (Table 7), 3.9 µM; in the series on HOP-62, NSCLC tumor (Table 21), 3.9 µM; in the series on COLO205, a colonic tumor (Table 7) it was 1.8 µM. The EC50 with COLO205, a colonic tumor (Table 21) was 1.8 µM; in series [1] (setting [8]), 2.5 µM; in the series on H23, NSCLC tumor (Table 7) it was 2.7 µM; with H23, NSCLC tumor (Table 21) it was 2.7 µM; in series [2] (Table 4, read-out: Neo), 15.6 µM. Moreover, in [5], the “WT:142L” value was determined as 4.1. For the same molecule, the “Neo:Bcl” value in series [1] (Table 4) came out at 6.9.

As to `Oc1c(Br)cc(Cl)cc1/C=N/Nc1ccc(C(F)(F)F)cn1` [Compound 0239], the EC50 in series [4] (Table 7) was 4.2 µM; in series [5], 13.3 µM; in the series on HOP-62, NSCLC tumor (Table 7) it was 19.1 µM; with COLO205, a colonic tumor (Table 7) it was over 25 µM; in [1] (setting [8]), 4.3 µM; with H23, NSCLC tumor (Table 7), 5.6 µM. The EC50 in [2] (Table 4, read-out: Neo) amounted to 17.2 µM. Besides, in series [5], the “WT:142L” value was 3.1. For the same molecule, in series [1] (Table 4), the “Neo:Bcl” value is 4.

With `O=C1c2ccccc2C(=O)c2c1n[n+]([O-])n2CCCN1CCN(c2ccccn2)CC1` [Compound 0511], in the series on Colo205 cells, the tumor growth result is on record as “effective in inhibiting tumor growth”.

As for `CN(C)CC[C@H](CSc1ccccc1)Nc1ccc(S(=O)(=O)NC(=O)c2ccc(N3CCN(Cc4ccccc4-c4ccc(Cl)cc4)CC3)cc2)cc1[N+](=O)[O-]` [ABT-737, reference compound], the EC50 in series [4] (Homo sapiens, Table 7) is 17 µM; in the series on HOP-62, NSCLC tumor (Homo sapiens, Table 7) it was over 25 µM; with HOP-62, NSCLC tumor (Table 21), over 25 µM; in the series with COLO205, a colonic tumor (Homo sapiens, COLO 205, Table 7), over 25 µM; with COLO205, a colonic tumor (Table 21) it was over 25 µM; in the series with H23, NSCLC tumor (Homo sapiens, NCI-H23, Table 7) it was over 25 µM. This molecule registered an EC50 in the series with H23, NSCLC tumor (Table 21) of over 25 µM.

Consider `Oc1c(Cl)cc(Cl)cc1/C=N/Nc1ccc(C(F)(F)F)cn1` [FH092], for which the EC50 in series [4] (Homo sapiens, Table 21) turned out to be 2.7 µM; with HOP-62, NSCLC tumor (Homo sapiens, Table 21) it was 8.3 µM; in the series with COLO205, a colonic tumor (setting [6]), 6.7 µM; in the series with H23, NSCLC tumor (setting [7]), 3.7 µM.

As to `O=[N+]([O-])c1ccc(O)c(/C=N/Nc2nccc3ccccc23)c1O` [FH314], the EC50 in series [4] (Homo sapiens, Table 21) stood at 3.8 µM; in the series on HOP-62, NSCLC tumor (Homo sapiens, Table 21), 17.5 µM; in the series with COLO205, a colonic tumor (setting [6]) it was 9.2 µM; in the series on H23, NSCLC tumor (setting [7]), 8.2 µM.

`COc1cc(Br)c(O)c(/C=N/NC(=O)c2ccccc2)c1` [Compound 0283]: the EC50 was over 25 µM in series [5]; 2.5 µM in series [1] (Table 3, TAMH cells overexpressing Bcl-xL (Tabx2s), read-out: 2S EC50); 3.5 µM in [1] (setting [8]); at least 50 µM in [2] (Table 3, read-out: Neo EC50); over 25 µM in series [2] (Table 4, read-out: Neo). The “WT:142L” value in [5] is on record as 7.1. Also, the “Neo:Bcl” value in series [1] (Table 4) is given as 7.1. Besides, in the series “Log P”, the log partition coefficient (Log P) came out at 3.730.

Turning to `Oc1c(Cl)cc(Cl)cc1/C=N/Nc1ccc(C(F)(F)F)cn1` [Compound 0235], the EC50 in [4] (Table 7) stood at 2.7 µM; in series [5] it was 8.5 µM; with HOP-62, NSCLC tumor (Table 7), 8.3 µM; in the series on COLO205, a colonic tumor (Table 7), 6.7 µM; in [1] (setting [8]) it was 3.9 µM; with H23, NSCLC tumor (Table 7), 3.7 µM. In addition, the EC50 in series [2] (Table 4, read-out: Neo) worked out at 11 µM. The “WT:142L” value in series [5] amounted to 2.2. Besides, the “Neo:Bcl” value in [1] (Table 4) came to 2.8.

In the case of `Oc1c(Br)cc(Cl)cc1/C=N/Nc1ccc(C(F)(F)F)cn1` [FH096], the EC50 in series [4] (Homo sapiens, Table 21) is 4.2 µM; in the series with HOP-62, NSCLC tumor (Homo sapiens, Table 21), 19.1 µM; in the series on COLO205, a colonic tumor (setting [6]) it was over 25 µM; in the series with H23, NSCLC tumor (setting [7]), 5.6 µM.

With `O=[N+]([O-])c1cccc(/C=N/Nc2ccccn2)c1O` [Compound 0208], the EC50 came out at 3.8 µM in [4] (Table 7); 9.7 µM in series [5]; 17.5 µM in the series with HOP-62, NSCLC tumor (Table 7); 9.2 µM with COLO205, a colonic tumor (Table 7); 4.4 µM in series [1] (setting [8]); 8.2 µM with H23, NSCLC tumor (Table 7). Besides, in [2] (Table 4, read-out: Neo), the EC50 is over 25 µM. Also, the “WT:142L” value in series [5] is recorded as 2.2. The “Neo:Bcl” value in series [1] (Table 4) turned out to be 5.7.

For the origin of these results see patent publication US8865901B2, “Gain-of-function Bcl-2 inhibitors” (priority 2009, dated 2014).
